Measured values taken from patent US9056847B2, “Activity based probes (ABPs) interacting with glycosidases” (ACADEMISCH MEDISCH CENTRUM BIJ UNIVERSITEIT VAN AMSTERDAM, priority 2010, dated 2015).

Target: GBA1 (Homo sapiens (Human), UniProt P04062)
Experiment: Kinetic constants of GBA1 inhibition (Table 2)
Assay type: biochemical
Details: Table 2 kinetic constants

GBA1, sequence (P04062 40-536): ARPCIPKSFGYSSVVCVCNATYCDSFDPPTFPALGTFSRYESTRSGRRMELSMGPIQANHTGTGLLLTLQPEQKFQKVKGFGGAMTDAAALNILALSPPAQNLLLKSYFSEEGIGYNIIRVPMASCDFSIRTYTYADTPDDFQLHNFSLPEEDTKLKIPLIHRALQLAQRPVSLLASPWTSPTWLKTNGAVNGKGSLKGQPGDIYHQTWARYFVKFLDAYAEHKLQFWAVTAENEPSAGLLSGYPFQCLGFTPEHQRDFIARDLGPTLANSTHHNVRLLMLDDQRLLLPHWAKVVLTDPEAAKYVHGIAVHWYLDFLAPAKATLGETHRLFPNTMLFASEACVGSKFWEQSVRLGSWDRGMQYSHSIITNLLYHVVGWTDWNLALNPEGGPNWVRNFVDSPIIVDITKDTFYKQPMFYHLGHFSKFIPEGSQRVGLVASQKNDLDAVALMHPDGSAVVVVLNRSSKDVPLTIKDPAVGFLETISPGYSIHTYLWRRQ

[N-]=[N+]=NC[C@@H]1[C@@H](O)[C@H](O)[C@@H](O)[C@@H]2O[C@H]12 [KY170, (2S,3R,4S,5S)-8-azido-8-deoxy-cyclophellitol]
ki: 0.0237 min⁻¹
